Results on one compound are retold here after US11224588B2, “Combination of lipoic acid and taurine as osmoprotective agent” (OPHTALMIS MONACO, priority 2015, dated 2022).

Assay [1] concerns human corneal (HCE) cells. The assay can be described thus: Cell viability (XTT assay) after hyperosmolar stress, HCE cells. The format is cell-based. Conditions: at 0.005% and 0.001% (w/v), 4 h and 8 h post-stress; FIG. 1. The protocol: A study was carried out to determine the osmoprotective capacity of sodium lipoate (A) during hyperosmolar stress on human conjunctival (WKD) and corneal (HCE) cells. In a second phase, tests were carried out to compare the effect of lipoic acid, glycerin (B), and taurine (C), individually and when the molecules were combined, on HCE cells under hyperosmolar stress conditions. The osmoprotective activity of A, then A with B and C, was evaluated by measuring cell viability in particular. To that end, cells were preincubated for 17 h with the test substance(s). Next, the medium was removed and the cells were subjected to hyperosmolar stress by addition of sodium chloride (100 mM NaCl) to the culture medium (M199 for the WKD cells and KSFM for the HCE cells). Cell-growth control cells were contacted with isotonic medium. Cell viability was analyzed pre-osmotic stress (0 h) in order to measure the effect of the molecules remaining in contact with the cells during the 17 h of incubation, then at 4 h, 8 h and 24 h post-induction of osmotic stress. The cell viability measurement was carried out via an XTT assay. Various concentrations of A were tested for the “molecule alone” tests: 0.0005%, 0.001%, 0.005%, 0.01% and 0.05% w/v. […] To ensure the validity and the significance of the data, the results obtained were analyzed statistically. […]

The next assay relates to corneal cells. The assay can be described thus: Antioxidant effect on corneal cells. The format is cell-based.

Turning to `O=C(O)CCCCC1CCSS1` (centres unmarked) [Sodium Lipoate, 5-(1,2-dithiolan-3-yl)pentanoic acid], in assay [1], the “Osmoprotective activity against osmotic stress” value is listed as “high osmoprotective activity”. Moreover, in the assay on corneal cells, the Antioxidant effect result is given as “rather weak”.
